Test results published in ChEMBL document CHEMBL1122620, “Inhibition of renin by substrate analogue inhibitors containing the olefinic amino acid 5(S)-amino-7-methyl-3(E)-octenoic acid” (J Med Chem, 1984).
Where a SMILES comes first, the peptide text is derived from it.

Assays:
Renin (Sus scrofa) = assay: Compound was evaluated for Non-competitive Renin inhibitory activity against hog kidney renin; Non competitive
Renin = molecular target: T1, Renin (Homo sapiens, UniProt P00797); assay: Compound was evaluated for competitive Renin inhibitory activity against human amniotic renin; Competitive
T1 sequence (P00797 whole entry): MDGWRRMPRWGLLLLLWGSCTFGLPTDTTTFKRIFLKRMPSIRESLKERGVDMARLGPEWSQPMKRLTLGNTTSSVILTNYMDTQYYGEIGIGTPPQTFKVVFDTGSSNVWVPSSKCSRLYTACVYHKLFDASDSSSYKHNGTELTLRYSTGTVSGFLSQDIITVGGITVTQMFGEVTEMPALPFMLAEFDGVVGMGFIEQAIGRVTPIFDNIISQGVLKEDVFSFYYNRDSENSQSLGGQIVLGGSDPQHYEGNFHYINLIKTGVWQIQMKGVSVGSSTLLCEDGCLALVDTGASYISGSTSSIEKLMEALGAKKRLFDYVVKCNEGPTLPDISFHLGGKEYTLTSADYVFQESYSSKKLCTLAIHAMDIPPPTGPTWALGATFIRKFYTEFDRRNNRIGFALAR

Row | Ki (Renin (Sus scrofa)) [µM] | Ki (Renin) [µM] | Structure (SMILES)
1 | 500 | – | COC(=O)[C@H](Cc1ccccc1)NC(=O)[C@@H](NC(=O)[C@H](CC(C)C)NC(=O)[C@@H](N)CC(C)C)C(C)C (H-LLVF-OMe)
2 | – | 1000 | COC(=O)[C@H](Cc1ccccc1)NC(=O)[C@@H](NC(=O)CNC(=O)[C@@H](N)CC(C)C)C(C)C (H-LGVF-OMe)
